We go through seven compounds from publication PMC3464284, “Virtual Screening as a Strategy for the Identification of Xenobiotics Disrupting Corticosteroid Action” (PLoS ONE, 2012).

Each structure is given as a SMILES string. Counter-ions that a name gives are not always drawn. Like-named read-outs stand apart in the source and are kept apart here.

Common to all, as to assay type: biochemical
The target in assay [1] is T1, 11β-HSD2 (Homo sapiens, UniProt P80365).
T1 construct: gene HSD11B2; stably expressed in HEK-293 cells, cell lysate
T1 sequence (P80365 1-405): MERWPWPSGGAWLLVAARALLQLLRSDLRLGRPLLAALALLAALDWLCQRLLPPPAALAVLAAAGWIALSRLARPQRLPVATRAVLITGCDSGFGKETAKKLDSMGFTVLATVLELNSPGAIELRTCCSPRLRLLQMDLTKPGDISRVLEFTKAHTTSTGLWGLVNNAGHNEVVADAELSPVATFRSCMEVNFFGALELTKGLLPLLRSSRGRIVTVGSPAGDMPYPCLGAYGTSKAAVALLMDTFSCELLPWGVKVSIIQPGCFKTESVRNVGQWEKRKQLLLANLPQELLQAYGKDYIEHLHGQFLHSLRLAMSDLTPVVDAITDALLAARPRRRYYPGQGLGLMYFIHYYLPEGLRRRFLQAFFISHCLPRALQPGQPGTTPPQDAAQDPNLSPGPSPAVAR
Kind of assay: radiolabeled cortisol to cortisone conversion, HEK-293 lysate. The conditions noted are these: for 11β-HSD2 activity (% of control): 20 µM, […] cortisol, […] NAD+, […]°C, […] min.

For assay [2], the target named is T2, 11β-HSD1 (Homo sapiens, UniProt P28845).
T2 construct: gene HSD11B1; stably expressed in HEK-293 cells, cell lysate
Briefly: radiolabeled cortisone to cortisol conversion, HEK-293 lysate.

The target of assay [3] is T1, 11β-HSD2. Briefly: radiolabeled cortisol to cortisone conversion, HEK-293 lysate.
For assay [4], the target named is T2, 11β-HSD1. Briefly: radiolabeled cortisone to cortisol conversion, HEK-293 lysate. Conditions: for remaining activity at 20 µM: read-out: 11β-HSD1 activity (% of control); for 11β-HSD1 activity (% of control): 20 µM, […] cortisone, […] NADPH, […]°C, […] min. The source says: radiolabeled cortisone to cortisol conversion, HEK-293 lysate on 11β-HSD1
[5] abbreviates: read-out: 11β-HSD2 activity (% of control).

T2 sequence (P28845 whole entry): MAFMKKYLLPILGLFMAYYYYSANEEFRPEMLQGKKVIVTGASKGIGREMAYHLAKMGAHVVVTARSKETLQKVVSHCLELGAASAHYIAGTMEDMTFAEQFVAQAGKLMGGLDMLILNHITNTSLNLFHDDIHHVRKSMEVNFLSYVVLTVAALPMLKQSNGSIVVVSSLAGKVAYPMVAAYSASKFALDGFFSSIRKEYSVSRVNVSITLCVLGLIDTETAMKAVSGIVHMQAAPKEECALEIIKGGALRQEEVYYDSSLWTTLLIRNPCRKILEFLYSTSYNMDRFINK

Broadly, the IC50 is the midpoint of a concentration-inhibition curve. In the case of `CC(C)OC(=O)C(C)(C)Oc1ccc(C(=O)c2ccc(Cl)cc2)cc1` [fenofibrate], the remaining activity at 20 µM on 11β-HSD2 [1] (setting [5]) was 140 ± 40%. At 11β-HSD1 [2], this compound registered an IC50 of 3.8 ± 0.3 µM.

`CC[C@@H](C(=O)[C@@H](C)[C@@H](O)[C@H](C)CCc1ccc(C)c(O)c1C(=O)O)[C@H]1O[C@](CC)([C@H]2CC[C@](O)(CC)[C@H](C)O2)C[C@@H]1C` [lasalocid] yielded an IC50 against 11β-HSD2 [3] of 14 ± 3 µM. Moreover, the remaining activity at 20 µM on 11β-HSD1 [4] was found to be 84 ± 3%.

Turning to `C[C@@H]1CC[C@@]2(OC1)O[C@H]1C[C@H]3[C@@H]4CC[C@H]5C[C@@H](O)CC[C@]5(C)[C@H]4CC(=O)[C@]3(C)[C@H]1[C@@H]2C` [Hecogenin], the remaining activity at 20 µM at 11β-HSD2 [1] (setting [5]) turned out to be 82 ± 2%; on 11β-HSD1 [4] it was 49 ± 9%.

As for `CC[C@H]1CN2CCc3cc(OC)c(OC)cc3[C@@H]2C[C@@H]1C[C@H]1NCCc2cc(O)c(OC)cc21` [(−) Cephaeline dihydrochloride], at 11β-HSD2 [1], the “11β-HSD2 activity (% of control)” value is 74±2. Besides, the “11β-HSD1 activity (% of control)” value at 11β-HSD1 [4] was 100±2.

Take `C[C@]12CC[C@H](O)C[C@H]1CC[C@@H]1[C@@H]2CC[C@]2(C)[C@@H](C3=CC(=O)OC3)CC[C@]12O` [Digitoxigenin]: the “11β-HSD2 activity (% of control)” value at 11β-HSD2 [1] is 104±4. On 11β-HSD1 [4], the “11β-HSD1 activity (% of control)” value amounted to 36±2.

`CCO[Si](CCCS)(OCC)OCC` [3-mercaptopropyl triethoxysilane]: the remaining activity at 20 µM on 11β-HSD2 [1] (read-out: remaining activity at 20 μM) worked out at 80 ± 7%.

On to `CCO[Si](CCCSSSSCCC[Si](OCC)(OCC)OCC)(OCC)OCC` [AB110873, bis[3-(triethoxysilyl)propyl] tetrasulfide], for which, on 11β-HSD1 [4], the “11β-HSD1 activity (% of control)” value was 79±3.
